From ChEMBL document CHEMBL1157641, “Carbonic anhydrase inhibitors. Inhibition of mammalian isoforms I-XIV with a series of natural product polyphenols and phenolic acids” (Bioorg Med Chem, 2010)

Legend:
[1] = target: Carbonic anhydrase 13 (Mus musculus, UniProt Q9D6N1)
Description: Inhibition of mouse CA13 by stopped-flow CO2 hydration assay

[2] = target: Carbonic anhydrase 2 (Homo sapiens, UniProt P00918)
Description: Inhibition of human CA2 by stopped-flow CO2 hydration assay

[3] = target: Carbonic anhydrase 5A, mitochondrial (Homo sapiens, UniProt P35218)
Description: Inhibition of human CA5A by stopped-flow CO2 hydration assay

[4] = target: Carbonic anhydrase 1 (Homo sapiens, UniProt P00915)
Description: Inhibition of human CA1 by stopped-flow CO2 hydration assay

[5] = target: Carbonic anhydrase 9 (Homo sapiens, UniProt Q16790)
Description: Inhibition of human CA9 by stopped-flow CO2 hydration assay

[6] = target: Carbonic anhydrase 5B, mitochondrial (Homo sapiens, UniProt Q9Y2D0)
Description: Inhibition of human CA5B by stopped-flow CO2 hydration assay

[7] = target: Carbonic anhydrase 12 (Homo sapiens, UniProt O43570)
Description: Inhibition of human CA12 by stopped-flow CO2 hydration assay

[8] = target: Carbonic anhydrase 4 (Homo sapiens, UniProt P22748)
Description: Inhibition of human CA4 by stopped-flow CO2 hydration assay

[9] = target: Carbonic anhydrase 3 (Homo sapiens, UniProt P07451)
Description: Inhibition of human CA3 by stopped-flow CO2 hydration assay

[10] = target: Carbonic anhydrase 14 (Homo sapiens, UniProt Q9ULX7)
Description: Inhibition of human CA14 by stopped-flow CO2 hydration assay

[11] = target: Carbonic anhydrase 6 (Homo sapiens, UniProt P23280)
Description: Inhibition of human CA6 by stopped-flow CO2 hydration assay

[12] = target: Carbonic anhydrase 7 (Homo sapiens, UniProt P43166)
Sequence of Carbonic anhydrase 7 (P43166 whole entry): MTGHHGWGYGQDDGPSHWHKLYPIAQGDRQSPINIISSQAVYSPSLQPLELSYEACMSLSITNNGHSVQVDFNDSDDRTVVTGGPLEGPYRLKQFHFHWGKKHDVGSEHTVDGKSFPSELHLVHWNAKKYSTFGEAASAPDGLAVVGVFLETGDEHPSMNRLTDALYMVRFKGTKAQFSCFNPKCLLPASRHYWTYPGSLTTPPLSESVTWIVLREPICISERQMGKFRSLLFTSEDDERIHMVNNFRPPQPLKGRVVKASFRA
Description: Inhibition of human CA7 by stopped-flow CO2 hydration assay

Sequence of Carbonic anhydrase 5B, mitochondrial (Q9Y2D0 whole entry): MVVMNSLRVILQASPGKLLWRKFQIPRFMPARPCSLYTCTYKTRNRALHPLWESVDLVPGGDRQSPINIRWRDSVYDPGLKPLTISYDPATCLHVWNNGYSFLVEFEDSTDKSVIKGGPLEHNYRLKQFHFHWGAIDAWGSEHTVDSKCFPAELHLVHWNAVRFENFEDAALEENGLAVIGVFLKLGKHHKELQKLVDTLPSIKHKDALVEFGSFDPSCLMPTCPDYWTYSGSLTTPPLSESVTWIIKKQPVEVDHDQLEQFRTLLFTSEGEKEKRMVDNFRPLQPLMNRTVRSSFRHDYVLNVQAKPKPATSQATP
Sequence of Carbonic anhydrase 4 (P22748 whole entry): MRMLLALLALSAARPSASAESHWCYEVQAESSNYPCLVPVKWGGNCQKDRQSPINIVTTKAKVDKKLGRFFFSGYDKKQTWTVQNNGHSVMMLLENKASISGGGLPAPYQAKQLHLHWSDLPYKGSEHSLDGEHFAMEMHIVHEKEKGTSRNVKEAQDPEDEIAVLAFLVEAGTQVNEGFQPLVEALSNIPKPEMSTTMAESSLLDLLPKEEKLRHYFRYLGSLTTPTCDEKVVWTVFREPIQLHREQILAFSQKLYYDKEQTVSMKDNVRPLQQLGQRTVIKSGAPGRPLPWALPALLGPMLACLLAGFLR
Sequence of Carbonic anhydrase 1 (P00915 whole entry): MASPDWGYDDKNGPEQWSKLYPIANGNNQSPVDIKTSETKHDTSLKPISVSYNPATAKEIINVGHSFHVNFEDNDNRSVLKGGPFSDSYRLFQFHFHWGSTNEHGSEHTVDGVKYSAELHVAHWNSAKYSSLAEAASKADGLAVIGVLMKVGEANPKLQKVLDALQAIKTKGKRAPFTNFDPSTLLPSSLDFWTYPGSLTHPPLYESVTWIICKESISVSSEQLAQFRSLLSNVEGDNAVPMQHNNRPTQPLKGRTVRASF
Sequence of Carbonic anhydrase 12 (O43570 whole entry): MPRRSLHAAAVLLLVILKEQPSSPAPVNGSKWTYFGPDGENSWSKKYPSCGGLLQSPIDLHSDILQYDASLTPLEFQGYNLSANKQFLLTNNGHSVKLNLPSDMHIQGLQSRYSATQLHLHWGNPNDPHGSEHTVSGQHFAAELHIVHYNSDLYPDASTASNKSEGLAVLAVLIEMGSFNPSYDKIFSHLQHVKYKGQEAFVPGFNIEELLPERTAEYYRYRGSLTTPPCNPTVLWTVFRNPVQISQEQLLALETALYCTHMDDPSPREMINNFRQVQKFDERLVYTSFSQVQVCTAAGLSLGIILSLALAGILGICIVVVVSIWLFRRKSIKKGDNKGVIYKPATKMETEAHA
Sequence of Carbonic anhydrase 6 (P23280 whole entry): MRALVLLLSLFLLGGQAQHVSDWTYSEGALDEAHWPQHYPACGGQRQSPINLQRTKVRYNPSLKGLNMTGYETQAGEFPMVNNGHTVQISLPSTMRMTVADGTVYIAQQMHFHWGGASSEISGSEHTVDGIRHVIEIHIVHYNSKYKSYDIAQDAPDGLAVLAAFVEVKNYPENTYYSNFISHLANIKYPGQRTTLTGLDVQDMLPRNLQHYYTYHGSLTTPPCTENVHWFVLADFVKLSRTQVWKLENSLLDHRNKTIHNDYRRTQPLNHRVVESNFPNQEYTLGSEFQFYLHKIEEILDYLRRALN
Sequence of Carbonic anhydrase 13 (Q9D6N1 whole entry): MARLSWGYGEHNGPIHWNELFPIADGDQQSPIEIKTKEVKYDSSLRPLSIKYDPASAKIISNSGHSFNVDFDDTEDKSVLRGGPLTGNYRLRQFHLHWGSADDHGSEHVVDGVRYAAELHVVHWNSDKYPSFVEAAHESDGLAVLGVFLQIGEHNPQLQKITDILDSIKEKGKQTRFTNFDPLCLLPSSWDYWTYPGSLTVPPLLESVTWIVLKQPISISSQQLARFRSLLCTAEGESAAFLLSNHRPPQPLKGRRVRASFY
Sequence of Carbonic anhydrase 5A, mitochondrial (P35218 whole entry): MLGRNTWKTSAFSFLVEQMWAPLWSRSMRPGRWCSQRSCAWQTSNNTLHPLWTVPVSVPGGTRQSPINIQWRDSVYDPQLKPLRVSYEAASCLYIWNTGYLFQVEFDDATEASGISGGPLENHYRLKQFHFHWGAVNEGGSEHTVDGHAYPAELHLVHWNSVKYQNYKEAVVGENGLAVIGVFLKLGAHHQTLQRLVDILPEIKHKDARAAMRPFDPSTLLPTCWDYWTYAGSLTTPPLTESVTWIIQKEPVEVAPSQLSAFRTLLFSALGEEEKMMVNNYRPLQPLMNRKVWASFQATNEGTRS
Sequence of Carbonic anhydrase 14 (Q9ULX7 whole entry): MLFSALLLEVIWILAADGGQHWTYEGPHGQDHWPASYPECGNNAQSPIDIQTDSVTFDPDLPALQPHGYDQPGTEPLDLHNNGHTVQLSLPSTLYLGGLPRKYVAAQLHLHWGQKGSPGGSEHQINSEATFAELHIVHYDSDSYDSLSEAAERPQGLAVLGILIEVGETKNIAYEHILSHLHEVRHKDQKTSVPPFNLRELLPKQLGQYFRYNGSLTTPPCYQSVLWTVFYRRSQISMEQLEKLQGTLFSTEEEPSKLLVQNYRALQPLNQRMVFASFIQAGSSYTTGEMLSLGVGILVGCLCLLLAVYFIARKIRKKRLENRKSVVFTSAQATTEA
Sequence of Carbonic anhydrase 3 (P07451 whole entry): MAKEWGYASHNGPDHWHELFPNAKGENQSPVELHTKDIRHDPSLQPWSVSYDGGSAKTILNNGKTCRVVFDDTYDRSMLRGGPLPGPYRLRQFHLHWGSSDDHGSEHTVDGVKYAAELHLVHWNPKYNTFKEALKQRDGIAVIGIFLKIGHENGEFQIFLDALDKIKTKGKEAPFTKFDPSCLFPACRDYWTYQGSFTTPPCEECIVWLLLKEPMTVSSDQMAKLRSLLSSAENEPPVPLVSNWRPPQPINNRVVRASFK

SMILES | Ki [1] [µM] | Ki [2] [µM] | Ki [3] [µM] | Ki [4] [µM] | Ki [5] [µM] | Ki [6] [µM] | Ki [7] [µM] | Ki [8] [µM] | Ki [9] [µM] | Ki [10] [µM] | Ki [11] [µM] | Ki [12] [µM]
O=C(O)/C=C/c1ccc(O)cc1 [COUMARIC ACID] | 10.1 | 0.98 | 5.96 | 1.07 | 5.33 | 7.76 | 8.01 | 9.6 | 7.57 | 6.68 | 6.72 | 5.23
O=C(O)c1cc(O)c(O)c(O)c1 [GALLIC ACID] | 9.86 | 2.25 | 4.08 | 3.2 | 6.99 | 9.97 | 7.78 | 9.8 | 7.49 | 7.03 | 6.13 | 6.07
O=c1c(O)c(-c2ccc(O)c(O)c2)oc2cc(O)cc(O)c12 [QUERCETIN] | 9.03 | 2.54 | 6.81 | 2.68 | 7 | 11.9 | 9.39 | 7.89 | 8.1 | 5.41 | 6.17 | 4.84

The next lines start with the values.

Ki [1] [µM] | Ki [2] [µM] | Ki [3] [µM] | Ki [4] [µM] | Ki [5] [µM] | Ki [6] [µM] | Ki [7] [µM] | Ki [8] [µM] | Ki [9] [µM] | Ki [10] [µM] | Ki [11] [µM] | Ki [12] [µM] | SMILES
10.3 | – | 7.59 | 2.32 | 9.37 | 12.7 | 10.1 | 9.08 | 10.5 | 8.91 | 7.06 | 6.32 | O=c1oc2c(O)c(O)cc3c(=O)oc4c(O)c(O)cc1c4c23 [ELLAGIC ACID]
12.2 | 2.4 | 7.04 | 2.89 | 9.87 | 10.5 | 9.78 | 10.8 | 11.1 | 9.43 | 8.45 | 7.41 | COc1cc(/C=C/C(=O)O)ccc1O [FERULATE]
7.79 | – | 3.67 | 0.92 | 3.73 | – | 6.27 | 7.78 | 6.61 | 6.16 | 5.7 | 4.08 | O=C(O)c1ccc(O)cc1 [PARABEN]
11 | 3.19 | 6.34 | 4.15 | 8.2 | 35.4 | 9.01 | 10.6 | 8.58 | 9.14 | 7.55 | 7.81 | COc1cc(C(=O)O)cc(OC)c1O [SYRINGIC ACID]
